Laboratory results reported in patent US8669249B2, “Poly (ADP-ribose) polymerase (PARP) inhibitors” (Takeda Pharmaceutical Company Limited, priority 2009, dated 2014).

How the values were obtained:
Jurkat cell line = assay: PARP cellular chemopotentiation assay (MTS, with/without TMZ); format: cell-based; conditions: Chemopotentiation factor: ratio of EC50 values of Jurkat cells co-treated without and with 100 μM TMZ; 96 hours
Description: Potentiation Factor (PF50) Determination from PARP Cellular Chemopotentiation Assay
Jurkat cell line was maintained according to the supplier (American Type Culture Collection (Rockville, Md.)). Cells were seeded in 96-well tissue culture microplates at 10,000 cells per well and cultured for 24 hours prior to addition of compounds, TMZ (Temozolomide) or DMSO (dimethylsulfoxide) vehicle. After 96 hours of treatment, the conversion of MTS ([3-(4,5-dimethylthiazol-2-yl)-5-(3-carboxymethoxyphenyl)-2-(4-sulfophenyl)-2H-tetrazolium, inner salt], Promega, Madison, Wis.) by metabolically active cells was determined through measuring the OD490 nm with a Spectramax microplate reader (Molecular Devices, San Diego, Calif.). To generate concentration-response curves, cells were treated in duplicate with a range of serial compound dilutions (final DMSO concentration was 0.5%) in the absence or presence of 100 μM TMZ chemoreagent. The percentage of viable cells per well was calculated by correction for background and normalizing against DMSO-treated cells. EC50 values for inhibition of cell viability were calculated using XLfit4 MicroSoft Excel curve-fitting software. Chemopotentiation factor PF50 was calculated as the ratio of EC50 values of cells co-treated without and with TMZ, respectively.

PARP = biological target: T1, PARP (Homo sapiens, UniProt P09874); assay: PARP ELISA (ELISA-based colorimetric PARP/Apoptosis Assay kit, Trevigen); format: biochemical; conditions: pIC50=-log10 IC50, IC50 in mol/L; inhibition of PARP catalytic activity
T1 construct: purchased Trevigen 4684-096-K HT (kit); 4684-096-01 (PARP enzyme)
Description: Inhibition Constant (IC50) from PARP ELISA
After 10 minutes of catalysis the reaction is quenched by solvent aspiration followed by irrigation of the assay wells 4 times with phosphate buffered saline (PBS) containing 0.1% t-Octylphenoxypolyethoxyethanol (Triton® X-100). Mouse Anti-poly ADP ribose (PAR) monoclonal antibody, goat antimouse immunoglobulin G (IgG)-horse radish peroxidase (HRP) conjugate and HRP substrate are added according to the manufacture's specifications to generate a colorimetric signal proportional to PARP catalytic activity.

[1] = biological target: T2, catalytic domain of Human PARP (Homo sapiens, UniProt P09874); assay: Biacore surface plasmon resonance affinity assay; format: binding; conditions: pKD=-log10 KD, KD in mol/L; Biacore T100, 25° C.; read-out: pKD (converted)
T2 construct: The catalytic domain of Human PARP was cloned and prepared; made in house
Summary of the method: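 Binding at 25° C on Biacore T100: 1 min compound association then 5 min dissociation (50 μL/min) over immobilized PARP catalytic domain, buffer HBS-P plus 1% DMSO, 0.5 mM TCEP, 5 mM MgCl2, 2-fold dilution series. KD derived as koff/kon from fitted association and dissociation phases.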

T1 sequence (P09874 whole entry): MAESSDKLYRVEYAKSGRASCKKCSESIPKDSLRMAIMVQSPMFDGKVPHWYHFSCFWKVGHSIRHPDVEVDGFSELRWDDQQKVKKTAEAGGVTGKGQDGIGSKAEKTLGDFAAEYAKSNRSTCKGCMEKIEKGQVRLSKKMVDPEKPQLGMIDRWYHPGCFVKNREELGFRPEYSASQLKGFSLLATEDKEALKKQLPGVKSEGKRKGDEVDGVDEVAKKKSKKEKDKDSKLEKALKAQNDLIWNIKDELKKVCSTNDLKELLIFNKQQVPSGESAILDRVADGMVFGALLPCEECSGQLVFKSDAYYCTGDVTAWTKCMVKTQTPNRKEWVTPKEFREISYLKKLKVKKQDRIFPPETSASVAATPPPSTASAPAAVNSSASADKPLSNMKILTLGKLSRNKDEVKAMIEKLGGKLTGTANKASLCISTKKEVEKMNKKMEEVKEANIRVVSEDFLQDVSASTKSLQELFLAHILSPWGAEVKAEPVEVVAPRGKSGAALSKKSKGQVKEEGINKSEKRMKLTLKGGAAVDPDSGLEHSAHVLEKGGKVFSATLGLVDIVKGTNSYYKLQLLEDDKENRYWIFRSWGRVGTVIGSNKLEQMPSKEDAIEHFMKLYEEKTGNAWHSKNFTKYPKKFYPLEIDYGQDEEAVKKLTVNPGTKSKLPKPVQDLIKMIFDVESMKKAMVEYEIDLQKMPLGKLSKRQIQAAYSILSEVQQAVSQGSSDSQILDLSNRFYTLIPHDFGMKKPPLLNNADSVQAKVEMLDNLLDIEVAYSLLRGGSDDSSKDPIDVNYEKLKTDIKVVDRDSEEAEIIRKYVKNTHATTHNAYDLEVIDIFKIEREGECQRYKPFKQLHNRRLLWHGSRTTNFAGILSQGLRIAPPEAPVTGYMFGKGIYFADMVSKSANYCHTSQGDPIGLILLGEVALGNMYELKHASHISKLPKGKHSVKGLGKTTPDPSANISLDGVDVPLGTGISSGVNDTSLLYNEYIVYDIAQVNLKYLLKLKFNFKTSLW
T2 sequence (P09874 788-1014 limits assumed): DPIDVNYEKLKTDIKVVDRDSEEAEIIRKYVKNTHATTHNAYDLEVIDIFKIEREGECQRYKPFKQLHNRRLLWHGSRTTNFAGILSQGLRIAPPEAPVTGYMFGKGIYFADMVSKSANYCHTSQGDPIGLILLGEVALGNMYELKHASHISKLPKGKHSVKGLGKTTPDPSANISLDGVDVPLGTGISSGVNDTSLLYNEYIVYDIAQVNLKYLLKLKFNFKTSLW

SMILES	IC50 (PARP)	Kd [1]	PF50 (Jurkat cell line)
CC1Oc2ccc(CN(C)Cc3ccc(Cl)cc3)cc2NC1=O (stereo not drawn) [Compound 70, 6-(((4-Chlorobenzyl)(methyl)amino)methyl)-2-methyl-2H-benzo[b][1,4]oxazin-3(4H)-one]	–	–	1.0-1.9
CC1Oc2ccc(CN3CCN(c4ccc(S(C)(=O)=O)cc4)CC3)cc2NC1=O (stereo not drawn) [Compound 227, 2-Methyl-6-((4-(4-(methylsulfonyl)phenyl)piperazin-1-yl)methyl)-2H-benzo[b][1,4]oxazin-3(4H)-one]	–	–	1.0-1.9
Cc1cc(CN2CC=C(c3ccc(Cl)cc3)CC2)cc2c1OC(C)C(=O)N2 (stereo not drawn) [Compound 263, 6-((4-(4-Chlorophenyl)-5,6-dihydropyridin-1(2H)-yl)methyl)-2,8-dimethyl-2H-benzo[b][1,4]oxazin-3(4H)-one]	≥ 126 nM	> 10000 nM	–
CC1Oc2c(F)cc(CN3CC=C(c4ccc(Cl)cc4)CC3)cc2NC1=O (stereo not drawn) [Compound 268, 6-((4-(4-Chlorophenyl)-5,6-dihydropyridin-1(2H)-yl)methyl)-8-fluoro-2-methyl-2H-benzo[b][1,4]oxazin-3(4H)-one]	≥ 126 nM	> 10000 nM	–
Cc1c(CN2CC=C(c3ccc(Cl)cc3)CC2)ccc2c1NC(=O)C(C)O2 (stereo not drawn) [Compound 326, 6-((4-(4-Chlorophenyl)-5,6-dihydropyridin-1(2H)-yl)methyl)-2,5-dimethyl-2H-benzo[b][1,4]oxazin-3(4H)-one]	> 200 nM	–	–
CCNC(=O)c1ccc(N2CCN(Cc3cc4c(c(-c5ccccc5)c3)OC(C)C(=O)N4)CC2)cc1 (stereo not drawn) [Compound 349, N-Ethyl-4-(4-((2-methyl-3-oxo-8-phenyl-3,4-dihydro-2H-benzo[b][1,4]oxazin-6-yl)methyl)piperazin-1-yl)benzamide]	> 200 nM	–	–
CC(C)(C)OC(=O)N1CCN(Cc2ccc3c(c2)NC(=O)CO3)CC1 [Compound 357, tert-Butyl 4-((3-oxo-3,4-dihydro-2H-benzo[b][1,4]oxazin-6-yl)methyl)piperazine-1-carboxylate]	> 200 nM	–	–
CC1Oc2ccc(CN3CCN(c4ccc(C(=O)N(C)C)cc4)CC3)cc2NC1=O (stereo not drawn) [Compound 378, N,N-Dimethyl-4-(4-((2-methyl-3-oxo-3,4-dihydro-2H-benzo[b][1,4]oxazin-6-yl)methyl)piperazin-1-yl)benzamide]	> 200 nM	–	–
CCN(C)C(=O)c1ccc(N2CCN(Cc3ccc4c(c3)NC(=O)C(C)O4)CC2)cc1 (stereo not drawn) [Compound 379, N-Ethyl-N-methyl-4-(4-((2-methyl-3-oxo-3,4-dihydro-2H-benzo[b][1,4]oxazin-6-yl)methyl)piperazin-1-yl)benzamide]	> 200 nM	–	–
CC(C)NC(=O)c1ccc(N2CCC(Cc3ccc4c(c3)NC(=O)C(C)O4)CC2)cc1 (stereo not drawn) [Compound 391, N-Isopropyl-4-(4-((2-methyl-3-oxo-3,4-dihydro-2I-benzo[b][1,4]oxazin-6-yl)methyl)piperidin-1-yl)benzamide]	> 200 nM	–	–
CC1Oc2ccc(CC3CCN(c4ccc(C(=O)NC5CC5)cc4)CC3)cc2NC1=O (stereo not drawn) [Compound 392, N-Cyclopropyl-4-(4-((2-methyl-3-oxo-3,4-dihydro-2I-benzo[b][1,4]oxazin-6-yl)methyl)piperidin-1-yl)benzamide]	> 200 nM	–	–
CCNC(=O)c1ccc(N2CCC(Cc3ccc4c(c3)NC(=O)C(C)O4)CC2)cc1 (stereo not drawn) [Compound 393, N-Ethyl-4-(4-((2-methyl-3-oxo-3,4-dihydro-2H-benzo[b][1,4]oxazin-6-yl)methyl)piperidin-1-yl)benzamide]	> 200 nM	–	–
CCOC(=O)c1ccc(N2CCC(Oc3ccc4c(c3)NC(=O)C(C)O4)CC2)cc1 (stereo not drawn) [Compound 394, Ethyl 4-(4-(2-methyl-3-oxo-3,4-dihydro-2H-benzo[b][1,4]oxazin-6-yloxy)piperidin-1-yl)benzoate]	> 200 nM	–	–
CNC(=O)c1ccc(N2CCC(Oc3ccc4c(c3)NC(=O)C(C)O4)CC2)cc1 (stereo not drawn) [Compound 395, N-Methyl-4-(4-(2-methyl-3-oxo-3,4-dihydro-2H-benzo[b][1,4]oxazin-6-yloxy)piperidin-1-yl)benzamide]	> 200 nM	–	–
CCNC(=O)c1ccc(N2CCC(Oc3ccc4c(c3)NC(=O)C(C)O4)CC2)cc1 (stereo not drawn) [Compound 396, N-Ethyl-4-(4-(2-methyl-3-oxo-3,4-dihydro-2H-benzo[b][1,4]oxazin-6-yloxy)piperidin-1-yl)benzamide]	> 200 nM	–	–
CC1Oc2ccc(OC3CCN(c4ccc(C(=O)NC5CC5)cc4)CC3)cc2NC1=O (stereo not drawn) [Compound 397, N-Cyclopropyl-4-(4-(2-methyl-3-oxo-3,4-dihydro-2H-benzo[b][1,4]oxazin-6-yloxy)piperidin-1-yl)benzamide]	> 200 nM	–	–

Now from value to compound, other results behind:

IC50 (PARP)	Kd [1]	SMILES	PF50 (Jurkat cell line)
≥ 126 nM	< 31.6 nM	CCOC(=O)c1ccc(N2CCN(Cc3cc4c(c(OC)c3)OC(C)C(=O)N4)CC2)cc1 (stereo not drawn) [Compound 159, Ethyl 4-(4-((8-methoxy-2-methyl-3-oxo-3,4-dihydro-2H-benzo[b][1,4]oxazin-6-yl)methyl)piperazin-1-yl)benzoate]	–
≥ 126 nM	126 to 1000 nM	COc1cc(CN2CCN(c3ccc(C(=O)O)cc3)CC2)cc2c1OC(C)C(=O)N2 (stereo not drawn) [Compound 160, 4-(4-((8-Methoxy-2-methyl-3-oxo-3,4-dihydro-2H-benzo[b][1,4]oxazin-6-yl)methyl)piperazin-1-yl)benzoic acid]	–
≥ 126 nM	1260 to 10000 nM	CC1Oc2ccc(CN3CCN(c4ccc(C(=O)O)cn4)CC3)cc2NC1=O (stereo not drawn) [Compound 233, 6-(4-((2-Methyl-3-oxo-3,4-dihydro-2H-benzo[b][1,4]oxazin-6-yl)methyl)piperazin-1-yl)nicotinic acid]	–
≥ 126 nM	126 to 1000 nM	CC1Oc2ccc(CN3Cc4ccccc4C3)cc2NC1=O (stereo not drawn) [Compound 239, 6-(Isoindolin-2-ylmethyl)-2-methyl-2H-benzo[b][1,4]oxazin-3(4H)-one]	–
≥ 126 nM	126 to 1000 nM	CC1Oc2ccc(CN3Cc4ccc([N+](=O)[O-])cc4C3)cc2NC1=O (stereo not drawn) [Compound 240, 2-Methyl-6-((5-nitroisoindolin-2-yl)methyl)-2H-benzo[b][1,4]oxazin-3(4H)-one]	–
≥ 126 nM	126 to 1000 nM	CCOC(=O)c1ccc(N2CCN(Cc3cc(F)c4c(c3)NC(=O)C(C)O4)CC2)cc1 (stereo not drawn) [Compound 269, Ethyl 4-(4-((8-fluoro-2-methyl-3-oxo-3,4-dihydro-2H-benzo[b][1,4]oxazin-6-yl)methyl)piperazin-1-yl)benzoate]	–
≥ 126 nM	1260 to 10000 nM	CC1Oc2c(F)cc(CN3CCN(c4ccc(C(=O)O)cc4)CC3)cc2NC1=O (stereo not drawn) [Compound 270, 4-(4-((8-Fluoro-2-methyl-3-oxo-3,4-dihydro-2H-benzo[b][1,4]oxazin-6-yl)methyl)piperazin-1-yl)benzoic acid]	–
> 200 nM	–	Cc1c(CN2CCN(c3ccc(Cl)cc3)CC2)ccc2c1NC(=O)C(C)O2 (stereo not drawn) [Compound 325, 6-((4-(4-Chlorophenyl)piperazin-1-yl)methyl)-2,5-dimethyl-2H-benzo[b][1,4]oxazin-3(4H)-one]	–
> 200 nM	–	Cc1c(CN2CCC(c3ccc(Cl)cc3)CC2)ccc2c1NC(=O)C(C)O2 (stereo not drawn) [Compound 327, 6-((4-(4-Chlorophenyl)piperidin-1-yl)methyl)-2,5-dimethyl-2H-benzo[b][1,4]oxazin-3(4H)-one]	–
> 200 nM	–	CC1Oc2cc(F)c(CN3CCN(c4ccc(Cl)cc4)CC3)cc2NC1=O (stereo not drawn) [Compound 330, 6-((4-(4-Chlorophenyl)piperazin-1-yl)methyl)-7-fluoro-2-methyl-2H-benzo[b][1,4]oxazin-3(4H)-one]	–
> 200 nM	–	CC1Oc2cc(F)c(CN3CCC(c4ccc(Cl)cc4)CC3)cc2NC1=O (stereo not drawn) [Compound 332, 6-((4-(4-Chlorophenyl)piperidin-1-yl)methyl)-7-fluoro-2-methyl-2H-benzo[b][1,4]oxazin-3(4H)-one]	–
> 200 nM	–	CCOC(=O)c1ccc(N2CCN(Cc3cc4c(cc3F)OC(C)C(=O)N4)CC2)cc1 (stereo not drawn) [Compound 333, Ethyl 4-(4-((7-fluoro-2-methyl-3-oxo-3,4-dihydro-2H-benzo[b][1,4]oxazin-6-yl)methyl)piperazin-1-yl)benzoate]	–
> 200 nM	–	CC1Oc2cc(F)c(CN3CCN(c4ccc(C(=O)O)cc4)CC3)cc2NC1=O (stereo not drawn) [Compound 334, 4-(4-((7-Fluoro-2-methyl-3-oxo-3,4-dihydro-2H-benzo[b][1,4]oxazin-6-yl)methyl)piperazin-1-yl)benzoic acid]	–
79.4 nM	–	C=CCc1cc(CN2CCN(c3ccc(C(=O)NCC)cc3)CC2)cc2c1OC(C)C(=O)N2 (stereo not drawn) [Compound 356, 4-(4-((8-Allyl-2-methyl-3-oxo-3,4-dihydro-2H-benzo[b][1,4]oxazin-6-yl)methyl)piperazin-1-yl)-N-ethylbenzamide]	–
